Data reported in patent US6670407B2, “Biofunctional polymers prepared in supercritical fluid” (University of Nottingham, priority 1997, dated 2003).

Test: hydrogen peroxide decomposition assay of catalase recovered from PLGA matrices
Assay type: biochemical
Conditions: catalase removed from PLGA matrices by degradation of the polymer; processed in supercritical CO2 at 45° C. and 200 bar, 30 minutes
Description: In a specific example of the use of the invention particles of the protein catalase (ca mean diameter 50 micron) are mixed with the biodegradable polymer poly(DL-lactide-co-glycolide) (PLGA) as per example 3, in the presence of super critical CO2 at 45° C. and 200 bar. After agitation for 30 minutes, the autoclave was depressurized leading to solid dispersions of a monolith form, in which catalase particles are intimately mixed with the biodegradable polymer. FIGS. 3a) and 3b) are scanning electron microscopy images at respective higher and lower magnifications of 10 micron (particles and micropores visible) and 50 micron (particles embedded in “channels”).
Removal of the catalase from the matrices by degradation of the polymer enabled the activity of the enzyme to be quantified using a hydrogen peroxide decomposition assay.

activity of the enzyme after SCF processing: lost no appreciable activity
Substance: catalase
